Results: the supplement of paper PMC10307832

How the values were obtained:
Assay in all cases: relative viability (nuclei count vs DMSO), 5 days (fraction); higher = more cells survive
NCI-H2087 = system: NCI-H2087
Outline: (§1)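 Dosing by pin tool came one day after lung cancer cell lines were seeded in 1536-well plates, using either one drug or a fixed anchor-drug dose plus five library-drug doses (not always all listed) in √10 steps. After 5 days, nuclei were counted on 4× images. Relative viability is treated-well nuclei count divided by vehicle-well nuclei count, and values are medians of duplicate plates.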

LXF-289 = system: LXF-289
Outline: as §1

NCI-H1651 = system: NCI-H1651
Outline: as §1

COR-L23 = system: COR-L23
Outline: as §1

HCC-44 = system: HCC-44
Outline: as §1

LU99A = system: LU99A
Outline: as §1

NCI-H1792 = system: NCI-H1792
Outline: as §1

NCI-H1563 = system: NCI-H1563
Outline: as §1

NCI-H1355 = system: NCI-H1355
Outline: as §1

CAL-12T = system: CAL-12T
Outline: as §1

NCI-H460 = system: NCI-H460
Outline: as §1

PC-14 = system: PC-14
Outline: as §1

NCI-H1755 = system: NCI-H1755
Outline: as §1

NCI-H1993 = system: NCI-H1993
Outline: as §1

NCI-H1666 = system: NCI-H1666
Outline: as §1

SK-MES-1 = system: SK-MES-1
Outline: as §1

NCI-H520 = system: NCI-H520
Outline: as §1

NCI-H2085 = system: NCI-H2085
Outline: as §1

NCI-H2170 = system: NCI-H2170
Outline: as §1

NCI-H1437 = system: NCI-H1437
Outline: as §1

Compound: Cc1cn(-c2cc(NC(=O)c3ccc(C)c(Nc4nccc(-c5cccnc5)n4)c3)cc(C(F)(F)F)c2)cn1 [Nilotinib] + Cc1nc(NC(=O)N2CCC[C@H]2C(N)=O)sc1-c1ccnc(C(C)(C)C(F)(F)F)c1 [Alpelisib] (partner 2 µM)
- relative viability (NCI-H2087; first compound 0.001 µM): 0.831
- relative viability (NCI-H2087; first compound 0.003162 µM): 1.08
- relative viability (NCI-H2087; first compound 0.01 µM): 1.23
- relative viability (NCI-H2087; first compound 0.03162 µM): 0.938
- relative viability (NCI-H2087; first compound 0.1 µM): 0.794
- relative viability (LXF-289; first compound 0.001 µM): 1.02
- relative viability (LXF-289; first compound 0.003162 µM): 1.26
- relative viability (LXF-289; first compound 0.01 µM): 1.23
- relative viability (LXF-289; first compound 0.03162 µM): 0.935
- relative viability (LXF-289; first compound 0.1 µM): 0.93
- relative viability (NCI-H1651; first compound 0.001 µM): 0.915
- relative viability (NCI-H1651; first compound 0.003162 µM): 1.15
- relative viability (NCI-H1651; first compound 0.01 µM): 1.41
- relative viability (NCI-H1651; first compound 0.03162 µM): 0.837
- relative viability (NCI-H1651; first compound 0.1 µM): 0.978
- relative viability (COR-L23; first compound 0.001 µM): 0.873
- relative viability (COR-L23; first compound 0.03162 µM): 0.901
- relative viability (COR-L23; first compound 0.1 µM): 0.791
- relative viability (HCC-44; first compound 0.001 µM): 0.708
- relative viability (HCC-44; first compound 0.003162 µM): 0.939
- relative viability (HCC-44; first compound 0.01 µM): 0.898
- relative viability (HCC-44; first compound 0.03162 µM): 0.59
- relative viability (HCC-44; first compound 0.1 µM): 0.74
- relative viability (LU99A; first compound 0.001 µM): 0.495
- relative viability (LU99A; first compound 0.003162 µM): 0.531
- relative viability (LU99A; first compound 0.01 µM): 0.518
- relative viability (LU99A; first compound 0.03162 µM): 0.48
- relative viability (LU99A; first compound 0.1 µM): 0.377
- relative viability (NCI-H1792; first compound 0.001 µM): 0.57
- relative viability (NCI-H1792; first compound 0.01 µM): 0.718
- relative viability (NCI-H1792; first compound 0.1 µM): 1.01
- relative viability (NCI-H1563; first compound 0.001 µM): 0.738
- relative viability (NCI-H1563; first compound 0.003162 µM): 0.905
- relative viability (NCI-H1563; first compound 0.01 µM): 0.839
- relative viability (NCI-H1563; first compound 0.03162 µM): 0.849
- relative viability (NCI-H1563; first compound 0.1 µM): 0.79
- relative viability (NCI-H1355; first compound 0.001 µM): 0.764
- relative viability (NCI-H1355; first compound 0.003162 µM): 1.08
- relative viability (NCI-H1355; first compound 0.01 µM): 0.974
- relative viability (NCI-H1355; first compound 0.03162 µM): 0.784
- relative viability (NCI-H1355; first compound 0.1 µM): 0.931
- relative viability (CAL-12T; first compound 0.003162 µM): 1.67
- relative viability (CAL-12T; first compound 0.01 µM): 1.92
- relative viability (CAL-12T; first compound 0.03162 µM): 0.653
- relative viability (CAL-12T; first compound 0.1 µM): 1.22
- relative viability (NCI-H460; first compound 0.001 µM): 0.518
- relative viability (NCI-H460; first compound 0.003162 µM): 0.88
- relative viability (NCI-H460; first compound 0.01 µM): 0.936
- relative viability (NCI-H460; first compound 0.03162 µM): 0.312
- relative viability (NCI-H460; first compound 0.1 µM): 0.41
- relative viability (PC-14; first compound 0.003162 µM): 1.08
- relative viability (PC-14; first compound 0.03162 µM): 0.547
- relative viability (PC-14; first compound 0.1 µM): 0.888
- relative viability (NCI-H1755; first compound 0.001 µM): 0.862
- relative viability (NCI-H1755; first compound 0.003162 µM): 1.13
- relative viability (NCI-H1755; first compound 0.01 µM): 0.982
- relative viability (NCI-H1755; first compound 0.03162 µM): 0.707
- relative viability (NCI-H1755; first compound 0.1 µM): 0.785
- relative viability (NCI-H1993; first compound 0.001 µM): 0.716
- relative viability (NCI-H1993; first compound 0.003162 µM): 0.66
- relative viability (NCI-H1993; first compound 0.01 µM): 0.755
- relative viability (NCI-H1993; first compound 0.03162 µM): 0.594
- relative viability (NCI-H1993; first compound 0.1 µM): 0.617
- relative viability (NCI-H1666; first compound 0.001 µM): 0.877
- relative viability (NCI-H1666; first compound 0.003162 µM): 1.14
- relative viability (NCI-H1666; first compound 0.01 µM): 0.956
- relative viability (NCI-H1666; first compound 0.03162 µM): 0.831
- relative viability (NCI-H1666; first compound 0.1 µM): 0.856
- relative viability (SK-MES-1; first compound 0.001 µM): 0.881
- relative viability (SK-MES-1; first compound 0.003162 µM): 1.15
- relative viability (SK-MES-1; first compound 0.01 µM): 0.95
- relative viability (SK-MES-1; first compound 0.03162 µM): 0.829
- relative viability (SK-MES-1; first compound 0.1 µM): 1.01
- relative viability (NCI-H520; first compound 0.001 µM): 0.793
- relative viability (NCI-H520; first compound 0.01 µM): 0.986
- relative viability (NCI-H520; first compound 0.03162 µM): 0.719
- relative viability (NCI-H520; first compound 0.1 µM): 1.03
- relative viability (NCI-H2085; first compound 0.001 µM): 0.967
- relative viability (NCI-H2085; first compound 0.003162 µM): 1.05
- relative viability (NCI-H2085; first compound 0.01 µM): 1.07
- relative viability (NCI-H2085; first compound 0.03162 µM): 0.87
- relative viability (NCI-H2085; first compound 0.1 µM): 0.92
- relative viability (NCI-H2170; first compound 0.001 µM): 0.865
- relative viability (NCI-H2170; first compound 0.003162 µM): 0.916
- relative viability (NCI-H2170; first compound 0.01 µM): 1.15
- relative viability (NCI-H2170; first compound 0.03162 µM): 0.767
- relative viability (NCI-H2170; first compound 0.1 µM): 1.07
- relative viability (NCI-H1437; first compound 0.001 µM): 0.829
- relative viability (NCI-H1437; first compound 0.003162 µM): 1.17
- relative viability (NCI-H1437; first compound 0.01 µM): 1.39
- relative viability (NCI-H1437; first compound 0.03162 µM): 0.75
- relative viability (NCI-H1437; first compound 0.1 µM): 0.971
